Measured values from ChEMBL document CHEMBL1131883, “Synthesis and evaluation of benzoxazinones as HIV-1 reverse transcriptase inhibitors. Analogs of Efavirenz (SUSTIVA)” (Bioorg Med Chem Lett, 1999).

Legend:
[1] = target: Human immunodeficiency virus type 1 reverse transcriptase (Human immunodeficiency virus 1) (UniProt Q72547)
[2] = target: Human immunodeficiency virus type 1 reverse transcriptase (Human immunodeficiency virus 1, UniProt Q72547); test: Inhibitory activity against HIV-1 reverse transcriptase

| SMILES | IC90 [1] [nM] | IC50 [2] [nM] |
| --- | --- | --- |
| CCC#CC1(C(F)(F)F)OC(=O)Nc2cccc(F)c21 (stereo not given) | 4.18 | 127 |
| CC(=O)Nc1ccc2c(c1)C(C#CC(C)C)(C(F)(F)F)OC(=O)N2 (stereo not given) | 500 | > 2000 |
| CCCC#CC1(C(F)(F)F)OC(=O)Nc2cccc(F)c21 (stereo not given) | 5.64 | 156 |
| Nc1ccc2c(c1)C(C#CC1CC1)(C(F)(F)F)OC(=O)N2 (stereo not given) | 20.6 | 802 |
| CCCC#CC1(C(F)(F)F)OC(=O)Nc2ccc([N+](=O)[O-])cc21 (stereo not given) | 4.57 | 304 |
| O=C1Nc2cccc(F)c2C(C#CC2CC2)(C(F)(F)F)O1 (stereo not given) | 4.34 | 78 |
| CC(C)C#CC1(C(F)(F)F)OC(=O)Nc2ccc(N)cc21 (stereo not given) | 27.5 | 896 |
| CC(=O)Nc1ccc2c(c1)C(C#CC1CC1)(C(F)(F)F)OC(=O)N2 (stereo not given) | 296 | > 2000 |
| CNc1ccc2c(c1)C(C#CC(C)C)(C(F)(F)F)OC(=O)N2 (stereo not given) | 10.2 | 473 |
| CC(C)C#CC1(C(F)(F)F)OC(=O)Nc2ccc([N+](=O)[O-])cc21 (stereo not given) | 3.35 | 199 |
| CNc1ccc2c(c1)C(C#CC1CC1)(C(F)(F)F)OC(=O)N2 (stereo not given) | 9.02 | 608 |
| CCC#CC1(C(F)(F)F)OC(=O)Nc2ccc([N+](=O)[O-])cc21 (stereo not given) | 2.23 | 276 |
| CCC#CC1(C(F)(F)F)OC(=O)Nc2ccc(N)cc21 (stereo not given) | 45.7 | 1890 |
| O=C1Nc2ccc([N+](=O)[O-])cc2C(C#CC2CC2)(C(F)(F)F)O1 (stereo not given) | 0.83 | 209 |
| CCCC#CC1(C(F)(F)F)OC(=O)Nc2ccc(N)cc21 (stereo not given) | 33.5 | 1510 |
